Values after ≈ are worked out from the molar mass of the structure shown.
Conditions: buffer; pH 7.4; 200.0 µM

SMILES | solubility kinetic [µg/mL]
COc1cc(NC(=O)COC(=O)c2cc(S(=O)(=O)N3CCOCC3)ccc2F)cc(OC)c1 | 34.2 (≈ 70.9 µM)
O=[N+]([O-])c1cnccc1Nc1ccc(Cl)cc1 | 16.6 (≈ 66.5 µM)
COc1ccc(CCN(C)C(=O)c2cnc(C)cn2)cc1OC | 38.1 (≈ 121 µM)
CCOC(=O)c1ccsc1NC(=O)c1ccco1 | < 0.6
COc1ccc(CCNCc2sccc2C)cc1OC.Cl | 36
CC12CN3CC(C)(CN(C1)C3c1ccc3c(c1)OCO3)C2O (configuration not stated) | > 45.4
Cn1cc(C(=O)Nc2ccc(C#N)cc2)c2ccccc2c1=O | < 0.2
Nc1c(C(=O)c2ccco2)oc2ccccc12 | 25.8 (≈ 114 µM)
Cc1cccc(-c2ncc(S(=O)(=O)C(C)(C)C)c(N)n2)c1 | 0.2 (≈ 0.655 µM)
Cc1cccc(C)c1NC(=S)NC(C)(C)CO | > 37.9
CCCN1C2CCCC1CC(NC(=S)NCCCOCC)C2 (configuration not stated) | > 49.1
O=C(CSc1nc(C2CC2)nc2ccccc12)Nc1ccccc1 | < 0.2
OCCC1CN(Cc2ccon2)CCN1Cc1ccc(F)c(F)c1 (configuration not stated) | 40.7 (≈ 121 µM)
CS(=O)(=O)N(CC(=O)Nc1c(F)cccc1F)Cc1ccccc1 | > 53.2
Cc1cc(C(=O)CN2C(=O)NC3(CCCCC3)C2=O)c(C)n1C | 19 (≈ 59.9 µM)
O=C(Cc1ccc(Cl)cc1)OCC(=O)N1CCCCCC1 | > 46.5
COCC(=O)Nc1ccc(OC)c(Cl)c1 | 33.8 (≈ 147 µM)
CC(C)(C)n1cnc2cc(NC(=O)c3ccccc3)ccc21 | > 44
COc1ccc(NC(=S)NCc2ccc(Cl)cc2)c(OC)c1 | 28.3 (≈ 84 µM)
Cc1ccc(NS(=O)(=O)c2cccc3nsnc23)cc1C | 39.2 (≈ 123 µM)
COc1ccc(/C=N/NC(=O)c2cc[n+]([O-])cc2)cc1 | > 40.7
O=C(COC(=O)CC1CCCC1)Nc1ccc(Cl)cn1 | 9.1 (≈ 30.7 µM)
CCOc1ccc(S(=O)(=O)N2CCN(C(=O)c3cc4ccccc4o3)CC2)cc1 | 6 (≈ 14.5 µM)
Cc1cnc(C(=O)OCC(=O)NCc2cccc(Cl)c2)cn1 | > 48
N#C/C(=C\c1ccco1)C(=O)Nc1ccc(S(N)(=O)=O)cc1 | 3.5 (≈ 11 µM)

SMILES | solubility kinetic [µg/mL]
Clc1ccc(-c2nc(NCCCN3CCOCC3)c3ccccc3n2)cc1 | 1.4 (≈ 3.66 µM)
COc1ccc2c(CC(=O)Nc3ccc(OC)nc3)coc2c1 | 14.8 (≈ 47.4 µM)
Fc1ccc(NC(=S)Nc2cccc3ccccc23)cc1F | 29.3 (≈ 93.2 µM)
O=S(=O)(c1ccc2ccccc2c1)N1CCN(c2ccc(O)cc2)CC1 | 4.6 (≈ 12.5 µM)
COc1ccc(N(CC(=O)N2CCOCC2)S(C)(=O)=O)cc1Cl | > 54.4
Cn1c(=O)c2c(O)c(Cc3ccccc3)c(=O)n(C)c2n(C)c1=O | 36 (≈ 110 µM)
CCC(Sc1ncccc1Nc1ccccn1)C(=O)O (configuration not stated) | > 43.4
N=C1SCC(=O)N1c1ccccc1Cl | > 34
O=C(CCSCc1ccccc1F)NCc1cccs1 | > 46.4
NC(=O)C1CC(=O)N(c2ccc(OCc3ccc([N+](=O)[O-])cc3)cc2)C1 (configuration not stated) | 20.4 (≈ 57.4 µM)
Cc1ccnc(SC2CC(=O)N(c3ccc(Cl)cc3)C2=O)n1 (configuration not stated) | > 50.1
CCN(CC)S(=O)(=O)c1cccc(NC2=NCCCCC2)c1 | 46.8 (≈ 145 µM)
Cc1ccccc1NC(=O)c1cccc(NC(=O)c2ccccc2C(=O)O)c1 | 55.8 (≈ 149 µM)
CC(NC(=O)c1ccc([N+](=O)[O-])cc1Cl)C1CC2CCC1C2 (configuration not stated) | 28 (≈ 86.7 µM)
COc1ccc(S(=O)(=O)Nc2ccc3c(c2)n(C)c(=O)n3C)cc1C | > 54.2
O=C(Nc1ccc2c(c1)C(=O)OC2)c1ccc(C(F)(F)F)cc1 | < 0.7
CC(C)c1ccc(CNc2ccc3c(c2)ncn3C)cc1 | 22 (≈ 78.7 µM)
O=C(Nc1ccccc1F)NC1CCCCCCC1 | 6.9 (≈ 26.1 µM)
COc1ccc(-c2ncncc2-c2ccc(Cl)cc2)c(O)c1 | 1.1 (≈ 3.52 µM)
N#Cc1c(Cl)cccc1N1CCCC1 | 2 (≈ 9.68 µM)
COc1ccc(Cl)cc1C(=O)O/N=C(\N)c1ccncc1 | 32.5 (≈ 106 µM)
COc1ccc(CN(C)C(=O)c2ccc3ccccc3n2)cc1F | > 48.7
N#Cc1ccc(S(=O)(=O)NC2CC2)cc1 | > 33.3
COc1ccc(NC(=O)Nc2cc(F)ccc2C)cc1 | 1.2 (≈ 4.37 µM)
O=C(N1CCOCC1)N1CCN(S(=O)(=O)c2ccc(F)cc2)CC1 | > 53.6

SMILES | solubility kinetic [µg/mL]
O=C(COc1cccnc1[N+](=O)[O-])NCc1ccccc1 | > 43.1
COc1cccc(-n2c(O)c(C=NCCN3CCNCC3)c(=O)[nH]c2=S)c1 | > 58.4
CSCCC(=O)N1CCN(CC(=O)N2CCCC2)CC1 | > 44.9
Cc1ncc(/C=C2\C(=O)Nc3ccccc32)[nH]1 | 12.1 (≈ 53.7 µM)
CC1CCc2sc(C(=O)OCC(=O)NC(C)C)cc2C1 (configuration not stated) | 1.2 (≈ 4.06 µM)
COc1ccc(N2CCN(CC(=O)NC(=O)NC(C)(C)C)CC2)cc1 | 51.3 (≈ 147 µM)
Cc1cc(OC(=O)c2ccc(C(C)(C)C)cc2)c([N+](=O)[O-])c(=O)[nH]1 | 46.4 (≈ 140 µM)
Nc1nc(C2CCOCC2)cs1 | > 27.6
Cc1ccc(/C=C/C(=O)NN2CCN(C)CC2)cc1 | > 38.9
CC(NC(=O)c1ccccc1)C(=O)NC1CCCc2ccccc21 (configuration not stated) | 14.7 (≈ 45.6 µM)
Oc1ccc2ccccc2c1C=Nc1ccccc1 | < 0.5
O=C(NCC1CCCO1)c1cccnc1NCc1ccc(F)cc1 (configuration not stated) | > 49.4
N#Cc1ccsc1NC(=O)COC(=O)CCS(=O)(=O)c1ccccc1 | > 56.8
Cc1ccc2nc(C)c3c(c2c1)N(c1ccc(F)cc1)CC3 | 40.6 (≈ 139 µM)
CC(NC(=O)OCc1ccccc1)c1ccccc1 (configuration not stated) | > 38.3
CN(C)C(=S)Nc1ccc(N2CCOCC2)cc1 | > 39.8
O=C(O)c1ccc(NC2=Nc3cccc4cccc2c34)cc1 | 36 (≈ 125 µM)
Cc1ccc2c(CN(C)Cc3cccc(Cl)c3)cc(=O)oc2c1C | < 0.7
COc1ccc(CNC(=O)CCC(=O)Nc2ccc(Cl)cc2)cc1 | 1.3 (≈ 3.75 µM)
CC(OC(=O)c1cnccn1)C(=O)c1ccccc1 (configuration not stated) | > 38.4
O=C(O)CSCC(=O)N1CCN(Cc2ccc3c(c2)OCO3)CC1 | > 52.9
Cc1ccc2c(C)c(C(=O)N(C)Cc3ccncn3)oc2c1C | 32.7 (≈ 106 µM)
Cc1ccc(/C=C/C(=O)NC2CCS(=O)(=O)C2)cc1 (configuration not stated) | 40.2 (≈ 144 µM)
CC1(C)C(=O)OC(c2ccc([N+](=O)[O-])cc2)C(C)(C)C1=O (configuration not stated) | 2.5 (≈ 8.58 µM)
Clc1ccc(-c2noc(/C=C/c3ccccc3)n2)cc1 | < 0.3

SMILES | solubility kinetic [µg/mL]
CSc1ncccc1C(=O)NCC(c1ccco1)N1CCCCC1 (configuration not stated) | > 51.8
CCOc1ccccc1NC(=O)CN1C(=O)COc2ccccc21 | 3.6 (≈ 11 µM)
C=CCNC(=S)Nc1ccc(N(C)C)cc1 | > 35.3
CCc1sc(C(=O)Nc2cccnc2)cc1Br | 3.9 (≈ 12.5 µM)
Cn1c(O)c(/C=C2\C=Nc3ccc(Br)cc32)c(=O)n(C)c1=O | 0.9 (≈ 2.48 µM)
CC(C)(C)C(=O)N1CCN(C(=O)c2ccco2)CC1 | > 39.6
Cn1ncc([N+](=O)[O-])c1C(=O)Nc1ccccc1Cl | > 42.1
CSCCn1c(C(C)(C)C)cc(C(=O)O)c1C | 31.3 (≈ 123 µM)
CC(OC(=O)c1ccc(Cl)cc1)C(=O)NCC1CCCCC1 (configuration not stated) | 13.8 (≈ 42.6 µM)
CCn1cc(C(=O)N2CCCCC2)c2ccccc21 | > 38.5
Cc1ccccc1OCCN1CCCC1 | 19.5 (≈ 95 µM)
Cc1csc(NC(=O)Cc2ccc(Cl)cc2)n1 | 22.2 (≈ 83.2 µM)
NC(=O)C1CCN(C(=O)CCn2c(=O)oc3ccccc32)CC1 | > 47.6
Cc1cc(C(=O)COc2ccccc2C(N)=O)c(C)n1C | 2.5 (≈ 8.73 µM)
CCN(CC)CCOC(=O)c1ccc([N+](=O)[O-])cc1.Cl | > 45.4
OCCNC(=S)c1ccccc1 | 25.7 (≈ 142 µM)
CCSC1=C(C#N)C2(CCCCC2)C2=C(CC(C)(C)CC2=O)N1 | 1 (≈ 3.03 µM)
CCOC(=O)/C=C(C)\C=C\c1c[nH]c2ccccc12 | 12.5 (≈ 49 µM)
O=C(O)CNC(=O)C(c1ccccc1)c1ccccc1 | > 40.4
COc1cc(CN=Cc2c(O)n(C(C)(C)C)c(=O)[nH]c2=O)cc(OC)c1 | 2.8 (≈ 7.75 µM)
O=C(Cc1ccccc1)N1CCN(CCCc2ccccc2)CC1.O=C(O)C(=O)O | > 61.9
Cc1cnc(SCc2cnc(C)nc2N)nc1 | > 37.1
CC(Sc1cccc[n+]1[O-])c1ccccc1 (configuration not stated) | > 34.7
COC(=O)/C(=C\C=C\c1ccccc1)NC(=O)c1ccccc1 | 6.3 (≈ 20.5 µM)
Cc1ccc(S(=O)(=O)NCC(=O)NC2CC2)cc1 | > 40.2

SMILES | solubility kinetic [µg/mL]
COc1ccc(OCCNC(=O)CCCO)cc1 | 4 (≈ 15.8 µM)
COc1ccc(C=O)cc1CSc1ncccc1C(=O)O | > 45.5
COc1ccccc1C(=O)NCCC(=O)Nc1cccc(C)n1 | > 47
CC(C)C(NC(=O)c1ccccc1NC(=O)C(C)(C)C)C(=O)N1CCOCC1 (configuration not stated) | 37 (≈ 95 µM)
Cc1cc(C)c(S(=O)(=O)NCc2cccnc2)c(C)c1 | > 43.6
C=CCNC(=O)COc1c(C)ccc(C)c1C | > 35
CC(C)C(C)NC(=O)COc1ccc(OCc2ccccc2)cc1 (configuration not stated) | 1.9 (≈ 5.8 µM)
CCOc1ccc(/C=C2\SC(N3CCCCC3)=NC2=O)cc1 | 1.6 (≈ 5.06 µM)
COc1ccc(OC)c2nc(-c3cccnc3)ccc12 | > 39.9
Cc1ccc(C)n1-c1ccc(C(=O)NCc2cccnc2)cc1 | > 45.8
CCc1ccc(NC(=O)c2cc(C)no2)cc1 | 14.3 (≈ 62.1 µM)
COc1cccc(N2CCN(C(=O)c3cc4cc(Cl)ccc4[nH]3)CC2)c1 | 11.8 (≈ 31.9 µM)
CCOC(=O)c1c(C)n(CC)c2c1cc(O)c1ccccc12 | < 0.6
CCCC(=O)Nc1sc(C)c(C)c1C#N | 13.6 (≈ 61.2 µM)
CCOC(=O)/C(C#N)=C/Nc1ccsc1C(=O)OC | < 0.3
Cc1cc(C)c(S(=O)(=O)Cc2ccccc2)c(Cl)n1 | > 44.4
NC(=O)Nc1ccc(C(=O)OCC(=O)NC2CCCc3ccccc32)cc1 (configuration not stated) | 11 (≈ 29.9 µM)
O=C(NCc1ccccn1)Nc1cc(Cl)ccc1Cl | 11.9 (≈ 40.2 µM)
COc1cc(C)c(NC(=O)c2cccc(S(=O)(=O)N3CCCC3)c2)cc1OC | 32.5 (≈ 80.3 µM)
O=C(CN1C(=O)COc2ccccc21)NCCN1CCCC1 | > 45.5
Cc1ccc(NC(CC(=O)c2ccccc2)C(=O)O)cc1Cl (configuration not stated) | 10.2 (≈ 32.1 µM)
O=C(NC12CC3CC(CC(C3)C1)C2)c1c(Cl)cccc1Cl | < 0.7

Source: PubChem BioAssay AID1996
